In test [1] the test system is mice with asthma induced by ovalbumin. Description: Accumulation of eosinophiles in airway (BALF cell count) of mice with asthma induced by ovalbumin (Example 3). It counts as in vivo, mice (C57BL/6). Conditions: FIG. 2; for percentage of eosinophiles in airway: intraperitoneal injection twice, ovalbumin-exposed mice 58%. On the procedure:
At first, in order to prepare animal models of asthma, 200 μl of ovalbumin solution (ovalbumin 200 μg and alumina gel 1000 μg were dissolved in physiological saline) was injected in each abdominal cavity of twenty 10-week old female mice (C57BL/6, Damul Science, Daejeon, Korea). Two weeks later, 200 μl of ovalbumin solution(2% w/v) was sprayed on each mouse to sensitize it. 200 μl of 1% ovalbumin solution was sprayed again on the 21st, the 22nd and the 23rd day, and 10% ovalbumin solution was sprayed again on the 25th day to sensitize. […] Each compound was administered by intraperitoneal injection and the injection was performed twice on the 24th and the 25th day from the treatment of ovalbumin. On the second day from the treatment, each mouse was sacrificed using ether. Then, a microtube was connected to trachea. PBS (phosphate-buffered saline, 0.8 ml) was injected and recovered through the microtube, which was repeated twice, resulting in the obtainment of bronchoalveolar lavage fluid (BALF). The fluid was centrifuged to separate cells in airway lumen and various proteins secreted from the cells and lung. The separated cells were fixed on a slide using cytospin and stained with Diff-Quick staining solution. Photographs were taken by a digital camera attached on Carzeiss microscope (model: […]). 5 random regions per each sample were picked to count eosinophiles, and the percentage of eosinophiles in each sample was shown in FIG. 2.

For test [2] the test system is unchanged. Description: Inflammation in lung of mice with asthma induced by ovalbumin (microphotographs, Examples 2 and 4). It counts as in vivo, mice (C57BL/6). Conditions: intraperitoneal injection twice. Here is the method:
At first, in order to prepare animal models of asthma, 200 μl of ovalbumin solution (ovalbumin 200 μg and alumina gel 1000 μg were dissolved in physiological saline) was injected in each abdominal cavity of twenty 10-week old female mice (C57BL/6, Damul Science, Daejeon, Korea). Two weeks later, 200 μl of ovalbumin solution(2% w/v) was sprayed on each mouse to sensitize it. 200 μl of 1% ovalbumin solution was sprayed again on the 21st, the 22nd and the 23rd day, and 10% ovalbumin solution was sprayed again on the 25th day to sensitize.
The above mice with asthma induced by sensitizing with 10% ovalbumin were divided into two groups; one was used as a negative control group treated with nothing and the other was treated with 10 mg/kg of black rice extract. Black rice extract was administered by intraperitoneal injection and the injection was performed twice on the 24th and the 25th day from the treatment of ovalbumin.
48 hours after the treatment of black rice extract, mice were sacrificed using ether. Inflammation in lung of each mouse was investigated. […] Therefore, it was confirmed that black rice extract could inhibit asthma effectively. […]

Test [3] has the same test system. Description: Accumulation of eosinophiles in airway (BALF cell count) of mice with asthma induced by ovalbumin (Example 5). It is filed as in vivo, mice (Balb/c). The note with it: 2nd to 23rd day, negative control 62.7 ± 4.3, n=5. On the procedure: (§1) In order to prepare animal models with asthma, 0.5 ml of ovalbumin solution (500 μg of ovalbumin and 10 mg of alumina gel were dissolved in 1 ml of PBS) was injected into abdominal cavities of twenty 5-week old female mice(Balb/c, Orient, Seoul) on first and 10th experiment day. The ovalbumin solution was sprayed on each mouse on the 21st, the 22nd and the 23rd day to induce asthma.
(§2) Mice (n=15) with asthma induced by ovalbumin were divided into three groups; one was used as a negative control treated with nothing and two other groups were used as experimental groups each treated with cyanidin glycoside by 1.5 mg/kg and 4.5 mg/kg, respectively. Cyanidin glycoside was orally administered once a day in succession from the 2nd day to the 23rd day.
24 hours after final sensitization, each mouse was sacrificed using ether and a microtube was connected into trachea. 0.8 ml of PBS was injected and recovered through the microtube, which was repeated twice. The obtained bronchoalveolar lavage fluid (BALF) was centrifuged to separate cells in airway lumen and various proteins secreted from the cells and lung.
The separated cells were fixed on a slide using cytospin and stained with Diff-Quick staining solution. Photographs were taken by a digital camera attached on Carzeiss microscope (model: AXIOVERT 25-CEL). 5 random regions per each sample were picked to count eosinophiles, and the percentage of eosinophiles in each sample was represented in Table 1.

The test system is the same in test [4]. The test is described as follows: Inflammation in lung of mice with asthma induced by ovalbumin (microphotographs, Example 5). It counts as in vivo, mice (Balb/c). Conditions: 1.5 mg/kg and 4.5 mg/kg orally once a day; FIG. 4C and 4D. On the procedure: as §1, §2
Precisely, as cyanidin glycoside concentration increased, the percentage of eosinophiles in airway decreased to 49% and 38% each; compared with a negative control. […] Inflammation in lung cells of the sacrificed mice was also investigated and the result was represented in FIG. 4.

The structures appear in SMILES notation.

`Oc1ccc(-c2[o+]c3cc(O)cc(O)c3cc2O)cc1.[Cl-]` [pelargonidin, 3,5,7-trihydroxy-2-(4-hydroxyphenyl)-1-benzopyrylium chloride]: in test [1] (0.5 mg/kg and 1.25 mg/kg, intraperitoneal injection), the “accumulation of eosinophiles in airway” value is listed as “inhibited”. Besides, the results for the “percentage of eosinophiles in airway” value in test [1] (0.5 mg/kg) and in test [1] (1.25 mg/kg) were 30% and 20%, respectively. The inflammation-inhibiting effect entry in test [2] (0.5 mg/kg, data not shown) was “outstanding”. Also, the inflammation in bronchi entry in test [2] (1.25 mg/kg, 48 hours after treatment, FIG. 3) is “remarkably reduced”.

Take `OC[C@H]1O[C@@H](Oc2cc3c(O)cc(O)cc3[o+]c2-c2ccc(O)c(O)c2)[C@H](O)[C@@H](O)[C@@H]1O` [Cyanidin glycoside, cyanidin 3-O-β-glucopyranoside]: the Percentage of eosinophiles came out at 49.5 ± 5.8 % in test [3] (1.5 mg/kg orally once a day); 49% in test [3] (1.5 mg/kg orally once a day, listed as cyanidin glycoside); 38.2 ± 6.2 % in test [3] (4.5 mg/kg orally once a day); 38% in test [3] (4.5 mg/kg orally once a day, listed as cyanidin glycoside). Moreover, the inflammation in bronchi entry in test [4] is “remarkably reduced”.

The values are drawn from patent US20060147564A1, “Composition for preventing or treating allergic disease using black rice extract and its therapeutic use” (CELLMICS CO. LTD, priority 2003, published 2006).
